Measured values: ChEMBL document CHEMBL4665781, “Metabolomic Comparison and Assessment of Co-cultivation and a Heat-Killed Inducer Strategy in Activation of Cryptic Biosynthetic Pathways” (J Nat Prod, 2020)
pIC50: −log10 of the molar value. Calls of active or inactive are those of the source. No cut-off for these calls is given here.

Experiments:
[1] = Cytotoxicity against human HTB26 cells assessed as reduction in cell viability after 24 hrs by alamar blue dye based assay; details: HTB26, 24 h
[2] = system: MCF7; test: Cytotoxicity against human MCF7 cells assessed as reduction in cell viability after 24 hrs by alamar blue dye based assay; details: MCF7, 24 h
[3] = system: Enterococcus faecium; test: Antimicrobial activity against vancomycin-resistant Enterococcus faecium EF379 after 22 hrs by CLSI protocol based microbroth dilution assay; assay type: functional, organism-based
[4] = system: Candida albicans; test: Antimicrobial activity against Candida albicans ATCC 14035 after 22 hrs by CLSI protocol based microbroth dilution assay; assay type: functional, organism-based
[5] = system: Staphylococcus aureus; test: Antimicrobial activity against methicillin-resistant Staphylococcus aureus ATCC 33591 after 22 hrs by CLSI protocol based microbroth dilution assay; assay type: functional, organism-based
[6] = system: Proteus vulgaris; test: Antimicrobial activity against Proteus vulgaris ATCC 12454 after 22 hrs by CLSI protocol based microbroth dilution assay; assay type: functional, organism-based
[7] = system: Staphylococcus warneri; test: Antimicrobial activity against Staphylococcus warneri ATCC 17917 after 22 hrs by CLSI protocol based microbroth dilution assay; assay type: functional, organism-based
[8] = system: MCF7; test: Cytotoxicity against human MCF7 cells assessed as reduction in cell viability up to 32 ug/ml after 24 hrs by alamar blue dye based assay; details: mcf7, 24 h
[9] = system: HCT-116; test: Cytotoxicity against human HCT-116 cells assessed as reduction in cell viability up to 32 ug/ml after 24 hrs by alamar blue dye based assay; details: hct-116, 24 h
[10] = Cytotoxicity against human HTB26 cells assessed as reduction in cell viability up to 32 ug/ml after 24 hrs by alamar blue dye based assay; details: htb26, 24 h
[11] = system: Vero; test: Cytotoxicity against African green monkey Vero cells assessed as reduction in cell viability up to 32 ug/ml after 24 hrs by alamar blue dye based assay; details: chlorocebus sabaeus

SMILES | pIC50 [1] | pIC50 [2] | Activity [3] | Activity [4] | Activity [5] | Activity [6] | Activity [7] | Activity [8] | Activity [9] | Activity [10] | Activity [11]
CCCCCCCC1=C(C)C(=O)C(=O)c2c1[nH]c1ccccc21 | 5.44 | 5.51 | inactive | inactive | inactive | inactive | inactive | – | – | – | –
COc1cccc(C(=O)NC(N)=O)c1O | – | – | inactive | inactive | inactive | inactive | inactive | Non-Toxic | Non-Toxic | Non-Toxic | Non-Toxic
